# Data: patent US7625894B2, “Pyrrolo[2,3-d]Pyrimidines as Protein Tyrosine Kinase Inhibitors” (Novartis AG, priority 2004, dated 2009)
# Columns and labels:
# EGF-R (HER-1) = EGF-R (HER-1) (Homo sapiens, UniProt P00533); assay: Inhibition of the tyrosine kinase activity of EGF-R (HER-1); assay type: biochemical; parameters: dose or concentration left out as unconfirmed
# VEGF receptor (KDR) = biological target: T1, VEGF receptor (KDR) (Homo sapiens, UniProt P35968); assay: Inhibition of VEGF-induced KDR-receptor autophosphorylation in transfected CHO cells; assay type: cell-based
# T1 construct: expressed in transfected cells
# T1 sequence (P35968 20-1356): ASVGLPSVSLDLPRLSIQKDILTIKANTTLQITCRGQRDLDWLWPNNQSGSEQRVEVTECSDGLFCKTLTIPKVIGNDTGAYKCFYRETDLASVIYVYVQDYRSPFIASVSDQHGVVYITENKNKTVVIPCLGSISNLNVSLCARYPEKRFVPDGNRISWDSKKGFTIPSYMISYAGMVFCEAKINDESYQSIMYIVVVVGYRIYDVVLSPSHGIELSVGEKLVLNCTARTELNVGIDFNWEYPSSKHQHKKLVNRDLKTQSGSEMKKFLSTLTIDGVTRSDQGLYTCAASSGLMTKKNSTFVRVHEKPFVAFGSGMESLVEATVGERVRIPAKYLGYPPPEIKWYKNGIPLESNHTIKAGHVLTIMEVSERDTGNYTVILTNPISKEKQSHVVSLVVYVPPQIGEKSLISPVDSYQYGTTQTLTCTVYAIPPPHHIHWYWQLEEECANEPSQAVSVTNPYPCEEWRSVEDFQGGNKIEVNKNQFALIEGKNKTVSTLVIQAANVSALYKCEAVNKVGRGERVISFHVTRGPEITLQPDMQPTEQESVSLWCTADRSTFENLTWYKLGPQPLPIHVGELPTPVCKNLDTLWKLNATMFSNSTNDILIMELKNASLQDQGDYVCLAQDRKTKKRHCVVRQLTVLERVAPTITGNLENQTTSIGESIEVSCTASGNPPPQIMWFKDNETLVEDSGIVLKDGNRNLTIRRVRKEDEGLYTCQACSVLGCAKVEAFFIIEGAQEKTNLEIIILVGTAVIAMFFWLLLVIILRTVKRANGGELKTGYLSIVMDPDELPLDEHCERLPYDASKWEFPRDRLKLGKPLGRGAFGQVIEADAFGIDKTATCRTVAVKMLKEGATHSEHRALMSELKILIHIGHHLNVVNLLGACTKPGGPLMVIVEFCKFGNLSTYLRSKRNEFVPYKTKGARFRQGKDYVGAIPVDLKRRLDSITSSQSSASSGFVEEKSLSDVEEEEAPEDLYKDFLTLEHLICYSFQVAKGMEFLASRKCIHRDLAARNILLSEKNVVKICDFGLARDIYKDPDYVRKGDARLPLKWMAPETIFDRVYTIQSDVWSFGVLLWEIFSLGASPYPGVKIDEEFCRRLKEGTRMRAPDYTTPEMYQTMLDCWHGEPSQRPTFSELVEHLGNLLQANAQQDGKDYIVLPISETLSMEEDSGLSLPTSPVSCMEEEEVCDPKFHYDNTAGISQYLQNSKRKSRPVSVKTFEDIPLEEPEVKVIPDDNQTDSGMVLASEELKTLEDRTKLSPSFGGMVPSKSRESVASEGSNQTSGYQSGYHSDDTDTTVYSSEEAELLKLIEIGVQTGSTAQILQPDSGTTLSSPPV
# Description: The inhibition of VEGF-induced KDR-receptor autophosphorylation can be confirmed with a further in vitro experiment in cells: transfected CHO cells, which permanently express human VEGF receptor (KDR), are seeded in complete culture medium with 10% fetal calf serum (FCS) in 6-well cell-culture plates and incubated at 37° C. under 5% CO2 until they show about 80% confluency. The compounds to be tested are then diluted in culture medium (without FCS, with 0.1% bovine serum albumin) and added to the cells. (Controls comprise medium without test compounds). After two hours of incubation at 37° C., recombinant VEGF is added; the final VEGF concentration is 20 ng/mL). After a further five minute incubation at 37° C., the cells are washed twice with ice-cold PBS (phosphate-buffered saline) and immediately lysed in 100 μL lysis buffer per well. The lysates are then centrifuged to remove the cell nuclei, and the protein concentrations of the supernatants are determined using a commercial protein assay (BIORAD). The lysates can then either be immediately used or, if necessary, stored at −20° C.
# A sandwich ELISA is carried out to measure the KDR-receptor phosphorylation: a monoclonal antibody to KDR (for example Mab 1495.12.14) is immobilized on black ELISA plates (OptiPlate™ HTRF-96 from Packard). The plates are then washed and the remaining free protein-binding sites are saturated with 1% BSA in PBS. The cell lysates (20 μg protein per well) are then incubated in these plates overnight at 4° C. together with an anti-phosphotyrosine antibody coupled with alkaline phosphatase (PY20: AP from Transduction Laboratories). […] The luminescence is measured in a Packard Top Count Microplate Scintillation Counter (Top Count). The difference between the signal of the positive control (stimulated with VEGF) and that of the negative control (not stimulated with VEGF) corresponds to VEGF-induced KDR-receptor phosphorylation (=100%). The activity of the tested substances is calculated as % inhibition of VEGF-induced KDR-receptor phosphorylation, wherein the concentration of substance that induces half the maximum inhibition is defined as the IC50 (effective dose for 50% inhibition).
# c-Raf-1 = biological target: T2, c-Raf-1 (Homo sapiens, UniProt P04049); assay: c-Raf-1 protein kinase assay; assay type: biochemical; parameters: dose or concentration left out as unconfirmed
# T2 construct: made in house; host or cells: Sf21 insect cells, triple baculovirus infection (GST-c-Raf-1, v-Ras, v-Src)
# T2 sequence (P04049 whole entry): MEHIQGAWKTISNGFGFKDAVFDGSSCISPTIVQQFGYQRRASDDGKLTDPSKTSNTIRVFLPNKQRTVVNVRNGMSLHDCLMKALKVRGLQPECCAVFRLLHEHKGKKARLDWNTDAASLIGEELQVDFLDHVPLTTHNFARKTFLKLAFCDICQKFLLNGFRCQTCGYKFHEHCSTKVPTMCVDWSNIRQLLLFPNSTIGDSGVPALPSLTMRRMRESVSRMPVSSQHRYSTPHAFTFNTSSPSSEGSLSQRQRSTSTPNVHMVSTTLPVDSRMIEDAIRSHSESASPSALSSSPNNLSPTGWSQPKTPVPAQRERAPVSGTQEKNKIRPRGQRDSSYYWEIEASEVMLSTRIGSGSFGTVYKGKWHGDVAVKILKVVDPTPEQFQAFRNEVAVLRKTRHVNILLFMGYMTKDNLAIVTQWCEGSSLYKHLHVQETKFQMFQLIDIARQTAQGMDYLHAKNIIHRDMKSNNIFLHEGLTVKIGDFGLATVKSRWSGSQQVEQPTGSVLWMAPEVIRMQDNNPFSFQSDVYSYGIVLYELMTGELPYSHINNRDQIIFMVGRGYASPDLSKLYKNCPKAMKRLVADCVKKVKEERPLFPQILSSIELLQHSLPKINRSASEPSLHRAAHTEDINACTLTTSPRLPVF
# Description: c-Raf-1 protein kinase assay: Recombinant c-Raf-1 protein is obtained by triple infection of Sf21 cells with GST-c-Raf-1 recombinant baculovirus together with v-Src and v-Ras recombinant baculoviruses that are required for active c-Raf-1 kinase production (Williams et al., PNAS 1992; 89:2922-6). Active Ras (v-Ras) is required to recruit c-Raf-1 to the cell membrane and v-Src to phosphorylate c-Raf-1 to fully activate it. Cells are seeded at 2.5×10^7 cells per 150 mm dish and allowed to attach to a 150 mm dish for 1 hr at RT. Media (SF900II containing 10% FBS) is aspirated and recombinant baculovirus GST-c-Raf-1, v-Ras and v-Src are added at MOI of 3.0, 2.5 and 2.5, respectively, in a total volume of 4-5 mL. Cells are incubated for 1 hr at RT and then 15 mL of medium is added. Infected cells are incubated for 48-72 hr at 27° C. Infected Sf21 cells are scraped and collected into a 50 mL tube and centrifuged for 10 min at 4° C. at 1100 g in a Sorvall centrifuge. The cell pellet is washed once with ice cold PBS and lysed with 0.6 mL lysis buffer per 2.5×10^7 cells. Complete lysis of cells is achieved after 10 min on ice with occasional pipetting. The cell lysates are centrifuged for 10 min at 4° C. at 14,500 g in a Sorvall centrifuge with SS-34 rotor and the supernatant is transferred to a fresh tube and stored at −80° C. c-Raf-1 is purified from cell lysates using 100 μL of packed glutathione-sepharose 4B beads equilibrated in ice cold PBS per 2.5×10^7 cells. GST-c-Raf-1 is allowed to bind to the beads at 4° C. for 1 hr with rocking. Bound GST-c-Raf-1 with beads is transferred to a column. The column is washed once with lysis buffer and twice with ice cold Tris buffered saline. Ice cold elution buffer is added and column flow is stopped to allow the free glutathione to disrupt the interaction of GST-c-Raf-1 with glutathione sepharose beads. Fractions (1 mL) are collected into pre-chilled tubes. Each tube contains 10% glycerol (final concentration) to maintain kinase activity during freeze thaw cycles. Purified fractions of GST-c-Raf-1 kinase protein are stored at −80° C.
# IκB is used as substrate for the c-Raf-1 kinase. IκB is expressed in bacteria as a His-tagged protein BL21. LysS bacteria containing the IκB plasmid are grown to an OD600 of 0.6 in LB medium, then induced to express the IκB with IPTG (final concentration of 1 mM) for 3 hrs at 37° C. and then bacteria are lysed by sonication (microtip limit setting for 3 times at 1 min each in sonication buffer [50 mM Tris pH 8.0, 1 mM DTT, 1 mM EDTA] and centrifuged at 10,000 g for 15 min. The supernatant is mixed with ammonium sulfate to give a final concentration of 30%. This mixture is rocked for 15 min at 4 C then spun at 10,000 g for 15 min. The pellet is resuspended in binding buffer (Novagen) containing 10 mM BSA. This solution is applied to Ni-agarose (Novagen) and washed according to the Novagen manual. IκB is eluted from the column using elution buffer (0.4 M imidazole, 0.2 M NaCl, 8 mM Tris pH 7.9). Fractions containing protein are dialysed in 50 mM Tris pH 8, 1 mM DTT. The activity of c-Raf-1 protein kinase is assayed in the presence or absence of inhibitors, by measuring the incorporation of ^33P from [γ^33P] ATP into IκB. The assay is carried out in 96-well plates at ambient temperature for 60 min. It contains (total volume of 30 μL): c-Raf-1 kinase (400 ng), 25 mM Tris.HCl, pH 7.5, 5 mM MgCl2, 5 mM MnCl2, 10 μM Na3VO4, 1 mM DTT and 0.3 μCi/assay [γ^33P]-ATP (10 μM ATP) using 600 ng IκB in the presence of 1% DMSO. Reactions are terminated by adding 10 μL of 250 mM EDTA and 30 μL of the reaction mixture is transferred onto Immobilon-PVDF membrane (Millipore, Bedford, Mass., USA) previously soaked for 5 min with methanol, rinsed with water, then soaked for 5 min with 0.5% H3PO4 and mounted on vacuum manifold with disconnected vacuum source. After spotting all samples, vacuum is connected and each well rinsed with 200 μL 0.5% H3PO4. […]
# Chain of EGF-R (HER-1) (P00533 25-1210): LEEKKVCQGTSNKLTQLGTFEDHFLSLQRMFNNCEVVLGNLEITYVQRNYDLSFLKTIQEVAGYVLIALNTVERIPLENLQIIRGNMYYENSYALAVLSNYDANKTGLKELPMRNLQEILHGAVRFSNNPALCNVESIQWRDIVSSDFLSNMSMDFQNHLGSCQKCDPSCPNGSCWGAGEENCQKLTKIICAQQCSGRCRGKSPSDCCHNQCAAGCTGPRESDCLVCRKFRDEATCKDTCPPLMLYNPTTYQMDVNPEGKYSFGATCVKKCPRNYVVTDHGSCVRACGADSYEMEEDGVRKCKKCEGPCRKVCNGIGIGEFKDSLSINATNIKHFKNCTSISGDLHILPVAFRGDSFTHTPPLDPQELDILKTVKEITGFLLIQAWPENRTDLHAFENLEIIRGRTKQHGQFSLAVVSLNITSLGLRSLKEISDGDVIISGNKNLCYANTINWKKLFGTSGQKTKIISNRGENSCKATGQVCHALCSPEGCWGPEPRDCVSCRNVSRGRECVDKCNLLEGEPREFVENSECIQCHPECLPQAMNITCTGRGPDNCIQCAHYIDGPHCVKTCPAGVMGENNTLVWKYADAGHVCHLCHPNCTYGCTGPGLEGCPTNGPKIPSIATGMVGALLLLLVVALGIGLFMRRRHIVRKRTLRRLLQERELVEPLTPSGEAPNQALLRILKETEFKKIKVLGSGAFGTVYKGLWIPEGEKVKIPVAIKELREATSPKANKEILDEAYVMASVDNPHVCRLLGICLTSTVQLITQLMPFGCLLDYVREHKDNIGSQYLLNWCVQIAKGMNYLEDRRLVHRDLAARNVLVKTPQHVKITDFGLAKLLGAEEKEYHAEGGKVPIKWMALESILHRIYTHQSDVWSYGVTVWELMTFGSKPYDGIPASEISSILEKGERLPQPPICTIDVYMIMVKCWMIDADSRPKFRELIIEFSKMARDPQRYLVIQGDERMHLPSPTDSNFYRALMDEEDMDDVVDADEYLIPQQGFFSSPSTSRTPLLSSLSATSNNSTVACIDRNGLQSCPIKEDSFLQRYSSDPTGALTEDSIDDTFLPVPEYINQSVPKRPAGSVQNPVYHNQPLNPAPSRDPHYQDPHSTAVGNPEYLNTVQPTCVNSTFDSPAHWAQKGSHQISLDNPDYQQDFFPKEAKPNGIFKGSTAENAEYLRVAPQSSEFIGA
Compound,melting point [°C],HER-1/ %-inh. [%] (EGF-R (HER-1)),KDR (% inh) (VEGF receptor (KDR)) [%],c-Raf-1/ %-inh. [%] (c-Raf-1)
"CN1CCN(Cc2ccc(-c3cc4c(N(C)C)ncnc4[nH]3)cc2)CC1 [Example 4, Dimethyl-{6-[4-(4-methyl-piperazin-1-ylmethyl)-phenyl]-7H-pyrrolo[2,3-d]pyrimidin-4-yl}-amine]",252 to 254,64,86,40
"CN1CCN(C(=O)c2ccc(-c3cc4c(N(C)C)ncnc4[nH]3)cc2)CC1 [Example 3, [4-(4-Dimethylamino-7H-pyrrolo[2,3-d]pyrimidin-6-yl)-phenyl]-(4-methyl-piperazin-1-yl)-methanone]",275 to 277,59,85,51
"COCCN(C)Cc1ccc(-c2cc3c(N(C)C)ncnc3[nH]2)cc1 [Example 29, [6-(4-{[(2-Methoxy-ethyl)-methyl-amino]-methyl}-phenyl)-7H-pyrrolo[2,3-d]pyrimidin-4-yl]-dimethyl-amine]",157 to 158,79,76,77
"CN(C)c1ncnc2[nH]c(-c3ccc(C(C)(C)O)cc3)cc12 [Example 34, 2-[4-(4-Dimethylamino-7H-pyrrolo[2,3-d]pyrimidin-6-yl)-phenyl]-propan-2-ol]",> 300,54,66,50
